Values after ≈ are worked out from the molar mass of the structure shown. Where two headings read alike, the source gives them in different places.
Experiments:
[1] = system: patients; experiment: Naltrexone therapy in approximately 6,000 patients; format: in vivo, human
Experimental: Our experiments in approximately 6,000 patients treated with naltrexone (release rate of between 0.5 to 20 mg/day) or 1 to 100 micrograms per hour, with similar release rates of antagonists, has confirmed improvements in multiple sclerosis in our patients and also in crohn's disease which are both inflammatory conditions. […] These experiments showing blocking of dopamine is why the combination of right hand isomer of naltrexone and flumazenil in the dose range described is the ideal treatment to arrest multiple sclerosis.

[2] = system: release of dopamine; settings: rats; combination of flumazenil and benzodiazepines; cited from earlier work
[3] = system: human adult volunteers; experiment: Infusion of flumazenil for treatment of benzodiazepine addiction; format: in vivo
[4] = system: epilepsy patient; experiment: Treatment of epilepsy patient with flumazenil; format: in vivo, human; settings: 170 micrograms per hour, day following treatment
[5] = system: patients
[6] = system: patients; settings: intravenous or oral bolus doses as high as 20,000 micrograms; work of others; cited from earlier work
[7] = system: patient suffering from Parkinson's disease; experiment: Finger tap test (one minute) and L-dopa intake in a Parkinson's disease patient; format: in vivo, human; settings: for Tapping score: flumazenil 170 micrograms per hour plus 10 mg of valium per day
Experimental: A study was conducted to test the theory that the loss of function of neuronal cells from hyperpolarisation in a patient suffering from Parkinson's disease could be reversed, improved or corrected. […] In addition, the patient was also given 10 mg of valium per day to facilitate the “sick cells” in the substantia niagra region of the brain stem, being able to produce their own dopamine again.
The patient was asked to perform the “finger tap test”, which is an indicator of the extent of Parkinson's disease. Briefly, the patient is asked to tap an index finger as fast as possible for one (1) minute (CNS tap test). The greater the number of taps per minute, the greater the improvement.
The following results were observed over four hours of treatment to the patient.

[8] = system: idiopathic hypersomnia patients; experiment: Treatment of idiopathic hypersomnia patients with flumazenil; format: in vivo, human
Source text: We tested this model of disease again in two idiopathic hypersomnia patients. Both individuals had severe sleep drunkenness for over 18 months (Patient 1) and for over 13 years (Patient 2). We believe this illness to be due to the damage in the balance between an initial insult that had caused hyperpolarisation of cells which made them nonresponsive to benzodiazepine, as the prolonged presence of high levels of endogenous benzodiazepines continues long after the initial insult or disease. The homeostatic mechanisms that balance the delivery of dopamine to their cells responded to the damaged benzodiazepine receptors by maintaining the endogenous benzodiazepines at a high level in order to get some benzodiazepines to their cells. This inadequate dopamine delivered by response to valium was not occurring when we met these patients and so their cells remained unable to conduct currents and also unable to recover from their hyperpolarisation in the absence of dopamine.
[…]. Patient 2 was treated in a similar way.
This is in contrast with an existing patient treated by the Emery Research Group, who indicated a dose of approximately 2 mg per body mass unit per day would be required. For P1, with a BMI of 34 this would equate to 68 mg per day, 17 times what they were given during the infusion.
During the infusion and the two weeks prior, P1 kept a record of sleepiness and mood, upon awaking, mid-awake and pre-sleep on a scale of 0-10. For sleepiness 0 represented an unavoidable need to sleep, while 10 is feeling awake and rested. Similarly for mood, 0 represents rock bottom, while 10 was chirpy, happy and cheerful.

[9] = Solubility of flumazenil; format: physicochemical
[10] = P1, 4 day subcutaneous infusion, 4 mg per day
[11] = P1, post treatment, scale of 0-10, 10 is feeling awake and rested
[12] = P1, post treatment, scale of 0-10, 10 was chirpy, happy and cheerful
[13] = P2, before dose was doubled to 8 mg/day
[14] = release rate of between 0.5 to 20 mg/day or 1 to 100 micrograms per hour

## O=C1CC[C@@]2(O)[C@H]3Cc4ccc(O)c5c4[C@@]2(CCN3CC2CC2)[C@H]1O5 (single isomer, unassigned) [L isomer of naltrexone]
[1]; human, in vivo
  dopamine effects: reduces dopamine effects

## CCOC(=O)c1ncn2c1CN(C)C(=O)c1cc(F)ccc1-2 [flumazenil]
[2]
  release of dopamine: enhance the release of dopamine
[3]; 1-8 mg of flumazenil per day, usually within hours of commencing
  relief in those who had damaged their benzodiazepine receptors: gained relief
[3]; flumazenil infusions, within hours, maintained for up to 3 to 4 days or longer
  symptoms treated by benzodiazepines: marked improvement
[3]; more than 500 patients, intravenous, subcutaneous and implant delivery
  safety of long term flumazenil in humans: safe for use in human beings
[4]
  tolerance of light (light activating peti mal episodes): able to go for a walk in the sun for an hour with no hat or sunglasses
[4]; none since (48 hour), previously at least 4-5 times each day
  fits (peti mal episodes): no fits
[5]; 20 to 300 microgram per hour, subcutaneous and intravenous infusions, within 3 days (5 days at the lower end)
  calmness and the ability to relate to others: significant improvement
[5]; at the 20 mg/hour end of the scale
  extent of changes in those with depression, anxiety and fear: less
[5]; beyond 40 mg/hour
  extent of changes in those with depression, anxiety and fear: very marked
[5]; during the infusion treatment
  confidence in those with depression, anxiety and fear: showed a confidence in themselves
[5]; more than 20 of the 500
  depression and anxiety symptoms in patients previously diagnosed with psychosis: lifted in their depression and in their anxiety symptoms
[5]; most of the 500
  alertness during infusion treatment: an increase in problem solving and reported a decrease in distractibility
[5]; nearly all of the 500, one patient reported difficulty getting to sleep
  sleep: return to natural sleep
[6]
  adverse effects of bolus doses: anxiety attacks or fits
[7]; 0 hours from infusion (baseline)
  Tapping score: 40 taps per minute
[7]; 2 hours from infusion
  Tapping score: 50 taps per minute
[7]; 3 hours from infusion
  Tapping score: 60 taps per minute
[7]; 4 hours from infusion
  Tapping score: 73 taps per minute
[7]; reduced from 1500 mg/day within days of commencing infusion, with valium
  L-dopa medication dosage after commencing infusion treatment: 250 mg/day
[8]; 4 mg per day, within 3 days, both patients
  sleep drunkenness: full relief
[8]; [10]
  concentration, memory and attention span: marked improvement
  symptoms of IH reported during the infusion: not having experienced any sleep drunkenness, excessive day time sleepiness, heart palpitations or cold hands and feet
[8]; P1, at completion of flumazenil treatment, 6 out of a possible 8 at the time of treatment
  Stanford Sleepiness Scale (SSS) score: 3
[8]; P1, at completion of flumazenil treatment, 21 of a possible 24 at the time of treatment
  Epworth Sleepiness Scale (ESS) score: 4
[8]; [11]
  Awaking sleepiness: 6.2 ± 0.8
  Mid-awake sleepiness: 6.8 ± 0.5
  Pre-sleep sleepiness: 5.8 ± 1.7
[8]; [12]
  Awaking mood: 8.8 ± 0.4
  Mid-awake mood: 8.8 ± 0.5
  Pre-sleep mood: 8.5 ± 0.6
[8]; [13]
  mental clarity of second patient (P2): increase in mental clarity
  tiredness and napping of second patient (P2): still been very tired and napping through the day
[8]; flumazenil infusion at 2 mg/day by implant, within 7 days
  health status of Patient 1: full return to normal health
[9]; pH 1.2, simulated gastric fluid
  solubility: 3000 µg/mL (≈ 9.89 mM)
[9]; pH 7.5, aqueous buffer, pH of 7.5
  solubility: 600 µg/mL (≈ 1.98 mM)

## O=C1CC[C@@]2(O)[C@H]3Cc4ccc(O)c5c4[C@@]2(CCN3CC2CC2)[C@H]1O5 [naltrexone]
[1]; [14]
  crohn's disease: improvements
  multiple sclerosis: improvements

From patent publication US20160089379A1, “TREATMENT OF NEUROLOGICAL AND OTHER DISORDERS” (PALMAYA PTY LTD, priority 2013, published 2016)
